Test results taken from patent US20230081390A1, “INHIBITORS OF RAF KINASES” (Kinnate Biopharma Inc., priority 2019, published 2023).

Molecular target: human RAF1 (Homo sapiens, UniProt P04049)
Assay: Protein kinase assay (33P-ATP filter binding), human RAF1, 10-dose IC50
Format: biochemical
Settings: MEK1 (K97R) substrate 3 micromolar, ATP 10 micromolar, read-out: RAF-1 IC50
Experimental: In brief, for each reaction, kinase and substrate were mixed in a buffer containing 20 mM HEPES (pH 7.5), 10 mM MgCl2, 1 mM EGTA, 0.02% Brij35, 0.02 mg/mL BSA, 0.1 mM Na3VO4, 2 mM DTT, and […]. All compounds were solubilized in DMSO. Compounds were then added to each reaction mixture via acoustic dispense using an ECHO 550 nanoliter dispenser. For human RAF1 testing, human MEK1 (K97R) was used as a substrate at a concentration of 3 micromolar, with a final ATP concentration of 10 micromolar. […] Reactions were carried out at room temperature for 2 hr and spotted onto P81 ion exchange cellulose chromatography paper (Reaction Biology). […] The percent remaining kinase activity relative to a vehicle-containing (DMSO) kinase reaction was calculated for each kinase/inhibitor pair. IC50 values were calculated using Prism 5 (GraphPad).

human RAF1, sequence (P04049 whole entry): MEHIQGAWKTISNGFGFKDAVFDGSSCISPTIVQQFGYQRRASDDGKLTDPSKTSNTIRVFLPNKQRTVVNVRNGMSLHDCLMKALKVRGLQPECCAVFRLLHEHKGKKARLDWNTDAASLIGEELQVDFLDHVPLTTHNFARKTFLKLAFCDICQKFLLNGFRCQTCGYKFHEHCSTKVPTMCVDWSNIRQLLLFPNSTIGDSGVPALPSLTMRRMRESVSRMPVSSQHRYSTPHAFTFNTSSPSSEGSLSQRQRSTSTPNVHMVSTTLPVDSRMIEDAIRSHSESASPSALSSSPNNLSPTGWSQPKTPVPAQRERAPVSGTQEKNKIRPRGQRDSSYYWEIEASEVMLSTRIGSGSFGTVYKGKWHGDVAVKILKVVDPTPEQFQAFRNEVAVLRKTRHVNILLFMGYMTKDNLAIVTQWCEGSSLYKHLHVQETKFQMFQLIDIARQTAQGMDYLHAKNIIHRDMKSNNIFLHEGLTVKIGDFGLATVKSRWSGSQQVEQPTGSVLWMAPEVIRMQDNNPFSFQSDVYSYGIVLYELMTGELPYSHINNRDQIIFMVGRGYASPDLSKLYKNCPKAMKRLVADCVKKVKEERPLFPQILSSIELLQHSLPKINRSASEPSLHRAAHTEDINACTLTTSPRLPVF

IC50, < 10 nM:
Cc1cc(F)c(NC(=O)N2CCC(C)(C)C2)cc1-c1cc(OCCO)nc(N2CCOCC2)c1 [Example 19, N-[2-fluoro-5-[2-(2-hydroxyethoxy)-6-(morpholin-4-yl)pyridin-4-yl]-4-methylphenyl]-3,3-dimethylpyrrolidine-1-carboxamide]
Cc1cc(F)c(NC(=O)N2CC/C(=C/C(F)(F)F)C2)cc1-c1cc(OCCO)nc(N2CCOCC2)c1 [Example 92, (Z)-N-(2-fluoro-5-(2-(2-hydroxyethoxy)-6-morpholinopyridin-4-yl)-4-methylphenyl)-3-(2,2,2-trifluoroethylidene)pyrrolidine-1-carboxamide]
Cc1ccc(NC(=O)N2CCC(CC(F)(F)F)C2)cc1-c1cc(O[C@@H]2CCOC2)nc(N2CCOCC2)c1 (stereo partly drawn) [Example 200, N-(4-methyl-3-(2-morpholino-6-(((R)-tetrahydrofuran-3-yl)oxy)pyridin-4-yl)phenyl)-3-(2,2,2-trifluoroethyl)pyrrolidine-1-carboxamide]
Cc1ccc(NC(=O)N2CCC(CC(F)(F)F)C2)cc1-c1cc(OC2CCOCC2)nc(N2CCOCC2)c1 (stereo not drawn) [Example 187, N-(4-methyl-3-(2-morpholino-6-((tetrahydro-2H-pyran-4-yl)oxy)pyridin-4-yl)phenyl)-3-(2,2,2-trifluoroethyl)pyrrolidine-1-carboxamide]
Cc1cc(F)c(NC(=O)N2CC[C@@H](OC(F)(F)F)C2)cc1-c1cnc(OC2CCOCC2)c(N2CCOCC2)c1 [Example 126, (3R)-N-[2-fluoro-4-methyl-5-[5-(morpholin-4-yl)-6-(oxan-4-yloxy)pyridin-3-yl]phenyl]-3-(trifluoromethoxy)pyrrolidine-1-carboxamide]
Cc1cc(F)c(NC(=O)N2CC[C@H](C(F)(F)F)C2)cc1-c1cnc(OC2CCOCC2)c(N2CCOCC2)c1 (single isomer, unassigned) [Example 32]
Cc1cc(F)c(NC(=O)N2CCOC(C(F)(F)F)C2C)cc1-c1cc(OCCO)nc(N2CCOCC2)c1 (single isomer, unassigned) [Example 112]
Cc1ccc(NC(=O)N2CCC(CC(F)(F)F)C2)cc1-c1cnc(OC2CCOCC2)c(N2CCOCC2)c1 (stereo not drawn) [Example 123, N-[4-methyl-3-[5-(morpholin-4-yl)-6-(oxan-4-yloxy)pyridin-3-yl]phenyl]-3-(2,2,2-trifluoroethyl)pyrrolidine-1-carboxamide]
Cc1ccc(NC(=O)N2CC[C@@H](OC(F)(F)F)C2)cc1-c1cc(O[C@H](C)CO)nc(N2CCOCC2)c1 [Example 214, (3R)-N-[3-(2-[[(2R)-1-hydroxypropan-2-yl]oxy]-6-(morpholin-4-yl)pyridin-4-yl)-4-methylphenyl]-3-(trifluoromethoxy)pyrrolidine-1-carboxamide]
Cc1cc(F)c(NC(=O)N2C[C@@H]3C[C@]3(C(F)(F)F)C2)cc1-c1cc(OCCO)nc(N2CCOCC2)c1 (single isomer, unassigned) [Example 50]
Cc1ccc(NC(=O)N2CC[C@@H](CC(F)(F)F)C2)cc1-c1cc(OC(C)(C)CO)nc(N2CCOCC2)c1 [Example 232, (S)-N-(3-(2-((1-hydroxy-2-methylpropan-2-yl)oxy)-6-morpholinopyridin-4-yl)-4-methylphenyl)-3-(2,2,2-trifluoroethyl)pyrrolidine-1-carboxamide]
Cc1ccc(NC(=O)N2CC[C@H](OC(F)(F)F)C2)cc1-c1cc(OC[C@H](O)CO)nc(N2CCOCC2)c1 [Example 142, (3S)-N-(3-[2-[(2R)-2,3-dihydroxypropoxy]-6-(morpholin-4-yl)pyridin-4-yl]-4-methylphenyl)-3-(trifluoromethoxy)pyrrolidine-1-carboxamide]
Cc1ccc(NC(=O)N2CC[C@@H](CC(F)(F)F)C2)cc1-c1cc(OC2CNC2)nc(N2CCOCC2)c1 [Example 204, (S)-N-(3-(2-(azetidin-3-yloxy)-6-morpholinopyridin-4-yl)-4-methylphenyl)-3-(2,2,2-trifluoroethyl)pyrrolidine-1-carboxamide]
Cc1cc(F)c(NC(=O)N2CC(F)(F)C(F)(F)C2)cc1-c1cc(OCCO)nc(N2CCOCC2)c1 [Example 22, 3,3,4,4-tetrafluoro-N-[2-fluoro-5-[2-(2-hydroxyethoxy)-6-(morpholin-4-yl)pyridin-4-yl]-4-methylphenyl]pyrrolidine-1-carboxamide]
Cc1cc(F)c(NC(=O)N2CCOC(C(F)(F)F)C2C)cc1-c1cc(OCCO)nc(N2CCOCC2)c1 (single isomer, unassigned) [Example 113]
Cc1ccc(NC(=O)N2CC[C@@H](OC(F)(F)F)C2)cc1-c1cc(O[C@@H](C)CO)nc(N2CCOCC2)c1 [Example 215, (3R)-N-[3-(2-[[(2S)-1-hydroxypropan-2-yl]oxy]-6-(morpholin-4-yl)pyridin-4-yl)-4-methylphenyl]-3-(trifluoromethoxy)pyrrolidine-1-carboxamide]
Cc1ccc(NC(=O)N2CC[C@H](OC(F)(F)F)C2)cc1-c1cc(OCC(C)(C)O)nc(N2CCOCC2)c1 [Example 154, (3S)-N-[3-[2-(2-hydroxy-2-methylpropoxy)-6-(morpholin-4-yl)pyridin-4-yl]-4-methylphenyl]-3-(trifluoromethoxy)pyrrolidine-1-carboxamide]
Cc1cc(F)c(NC(=O)N2CC[C@H](CC(F)(F)F)C2)cc1-c1cc(O[C@H](C)CO)nc(N2CCOCC2)c1 (single isomer, unassigned) [Example 184]
Cc1cc(F)c(NC(=O)N2CC[C@]3(C2)CC3(F)F)cc1-c1cc(OCCO)nc(N2CCOCC2)c1 (single isomer, unassigned) [Example 62]
Cc1ccc(NC(=O)N2CC[C@@H](CC(F)(F)F)C2)cc1-c1cc(OC2CCC(C)(O)C2)nc(N2CCOCC2)c1 (stereo partly drawn) [Example 223, (3S)-N-(3-[2-[(3-hydroxy-3-methylcyclopentyl)oxy]-6-(morpholin-4-yl)pyridin-4-yl]-4-methylphenyl)-3-(2,2,2-trifluoroethyl)pyrrolidine-1-carboxamide]
Cc1ccc(NC(=O)N2CC=C(CC(F)(F)F)C2)cc1-c1cc(OCC(C)(C)O)nc(N2CCOCC2)c1 [Example 216, N-[3-[2-(2-hydroxy-2-methylpropoxy)-6-(morpholin-4-yl)pyridin-4-yl]-4-methylphenyl]-3-(2,2,2-trifluoroethyl)-2,5-dihydropyrrole-1-carboxamide]
Cc1ncc(NC(=O)N2CC[C@@H](C(F)(F)F)C2)cc1-c1cnc(OCCO)c(N2CCOCC2)c1 (single isomer, unassigned) [Example 16]
Cc1cc(F)c(NC(=O)N2CC[C@@H](CC(F)(F)F)C2)cc1-c1cc(OC[C@@H](C)O)nc(N2CCOCC2)c1 [Example 181, (S)-N-(2-fluoro-5-(2-((R)-2-hydroxypropoxy)-6-morpholinopyridin-4-yl)-4-methylphenyl)-3-(2,2,2-trifluoroethyl)pyrrolidine-1-carboxamide]
Cc1cc(F)c(NC(=O)N2CCCC3(CCC3)C2)cc1-c1cc(OCCO)nc(N2CCOCC2)c1 [Example 38, N-[2-fluoro-5-[2-(2-hydroxyethoxy)-6-(morpholin-4-yl)pyridin-4-yl]-4-methylphenyl]-6-azaspiro[3.5]nonane-6-carboxamide]
Cc1cc(F)c(NC(=O)N2CC[C@H](C(F)(F)F)C2)cc1-c1cc(OCCO)nc(N2CCOC[C@H]2C)c1 (single isomer, unassigned) [Example 30]
Cc1ccc(NC(=O)N2CCC(CC(F)(F)F)C2)cc1-c1cc(O[C@H]2CCOC2)nc(N2CCOCC2)c1 (stereo partly drawn) [Example 188, N-(4-methyl-3-(2-morpholino-6-(((S)-tetrahydrofuran-3-yl)oxy)pyridin-4-yl)phenyl)-3-(2,2,2-trifluoroethyl)pyrrolidine-1-carboxamide]
Cc1cc(F)c(NC(=O)N2CC[C@@H](C(C)(F)F)C2)cc1-c1cc(OCCO)nc(N2CCOCC2)c1 (single isomer, unassigned) [Example 34]
Cc1ccc(NC(=O)N(C)c2cnn(C(F)(F)F)c2)cc1-c1cc(OC[C@@H](C)O)nc(N2CCOCC2)c1 [Example 156, 1-(3-[2-[(2R)-2-hydroxypropoxy]-6-(morpholin-4-yl)pyridin-4-yl]-4-methylphenyl)-3-methyl-3-[1-(trifluoromethyl)pyrazol-4-yl]urea]
Cc1cc(F)c(NC(=O)N2CCC(C(C)C(F)(F)F)C2)cc1-c1cc(OCCO)nc(N2CCOCC2)c1 (single isomer, unassigned) [Example 102, N-[2-fluoro-5-[2-(2-hydroxyethoxy)-6-(morpholin-4-yl)pyridin-4-yl]-4-methylphenyl]-3-(1,1,1-trifluoropropan-2-yl)pyrrolidine-1-carboxamide]
Cc1cc(F)c(NC(=O)N2CC=C(C(F)(F)C(F)(F)F)C2)cc1-c1cc(OCCO)nc(N2CCOCC2)c1 [Example 79, N-[2-fluoro-5-[2-(2-hydroxyethoxy)-6-(morpholin-4-yl)pyridin-4-yl]-4-methylphenyl]-3-(1,1,2,2,2-pentafluoroethyl)-2,5-dihydropyrrole-1-carboxamide]
